Reference: paper PMC12089509, “NorA Efflux Pump Inhibitors: Expanding SAR Knowledge of Pyrazolo[4,3‐c][1,2]benzothiazine 5,5‐Dioxide Derivatives” (Archiv Der Pharmazie, 2025)
Values after ≈ are worked out from the molar mass of the structure shown. Where two headings read alike, the source gives them in different places.

Tests used:
[1] = system: Staphylococcus aureus SA-1199B; experiment: MIC determination (broth microdilution) against SA-1199B; format: cell-based; settings: SA1199B
Source text: (§1) In this study, the S. aureus strains SA‐1199B (overexpressing norA) and its isogenic parent SA‐1199 (wild type), the pair SA‐K1902 (norA‐depleted) and SA‐K2378 (complemented with a pCU1 plasmid harboring the norA promoting and coding region from SA‐1199B), were used to test EPI activity as described in a previous study. Furthermore, the S. aureus ATCC 29213 was used as the reference strain in MIC determination experiments.

[2] = system: S. aureus SA-K1902 (norA-); experiment: MIC evaluation against SA-K1902; format: cell-based, Staphylococcus aureus; settings: for MIC: Staphylococcus aureus
Source text: (§2) Conversely, interesting results were obtained against SA‐K2378, which overexpresses the norA gene (Table 2). […] This corroborates the hypothesis that their activity is strictly related to NorA EP inhibition.
as §1

[3] = system: S. aureus SA-K2378 (norA ++); experiment: MIC evaluation against SA-K2378; format: cell-based, Staphylococcus aureus; settings: for MIC: Staphylococcus aureus
Source text: as §2, §1

[4] = system: Staphylococcus aureus SA-K2378 biofilm; format: cell-based
Source text: The formation of biofilms is a significant contributor to the development of AMR [1, 26, 27]. This is due to the fact that biofilms provide a protective environment for bacteria, thereby rendering them more resilient to the effects of common antibacterial agents. Over the years, several investigations have been conducted to study the role of EPs in the various stages of microbial biofilm formation. However, a definitive answer regarding the potential role of EPs in this microbial pathway remains elusive. While some studies have reported a negative effect of certain EPs on biofilm formation, others have highlighted the promising role of EPIs in limiting biofilm formation and enhancing the efficacy of antibiotics under biofilm conditions.
The biofilm production by SA‐K1902 and SA‐K2378 strains was analyzed in flat 96‐well microtiter plates as previously described, with some modifications. […] The microplates were incubated at 37°C for 24 h in static conditions. After incubation, the biofilms were washed three times with distilled water, dried at 60°C for 1 h, and stained with 0,1% crystal violet for 10 min. After staining, the crystal violet was removed and the wells were washed three times with water, dried at 37°C for 30 min, and the bound crystal violet was solubilized with 96% ethanol in shaking conditions. At the end of the destaining, the absorbance (570 nm) of the solutions in each well was measured using the FLUOstar Omega plate reader (BMG‐LABTECH, Germany) to quantify the biofilm produced in each condition compared with the control (biofilm produced by the strain without any compound/antibiotic). Biofilm assays were performed in triplicate for each condition.

[5] = target: T1, S. aureus NorA efflux pump (SA-1199B strain, overexpresses the norA gene) (Staphylococcus aureus, UniProt P0A0J7); experiment: EtBr efflux inhibition assay; format: cell-based; settings: for inhibition at 10 µM: read-out: EtBr efflux inhibition (%), compound at 10 µM, SA-1199B; for inhibition at 50 µM: read-out: EtBr efflux inhibition (%), compound at 50 µM, SA-1199B
T1 construct: endogenous in cells; host or cells: S. aureus SA-1199B (overexpresses norA; isogenic parent SA-1199)
Experimental: EtBr efflux inhibition assays were conducted using the S. aureus SA‐1199B strain, which overexpresses the norA gene and has an A116E GrlA substitution. Each compound was tested at 50 µM (see Figure 2). The starting hit compound 1 was used as the internal standard for comparison with the previously reported data.
The cells were grown overnight in cation‐supplemented Mueller–Hinton broth (CAMHB) without any additives at 35°C. The organisms were subsequently diluted into CAMHB to obtain an optical density at 600 nm (OD600) of 0.7–0.8. Subsequently, the cells were pelleted and resuspended at an OD600 of 0.8 in 0.5 mL aliquots of CAMHB containing EtBr and carbonyl cyanide m‐chlorophenylhydrazone (CCCP) to “load” the cells with EtBr (final concentrations of 25 μM for EtBr and 100 μM for CCCP). Following 20 min of incubation at room temperature, the cells were pelleted and resuspended in 1 mL of fresh CAMHB. Immediately thereafter, 200 μL aliquots were transferred into the wells of white 96‐well plates, which either lacked or contained 50 or 10 μM of each test compound. Fluorescence was monitored continuously using a microplate reader (Infinite M200 Pro, TECAN) at excitation and emission wavelengths of 485 and 645 nm, respectively, for a period of 5 min. The experiments were conducted in triplicate, with two technical replicates per biological replicate. The efflux activity of the SA‐1199B strain was expressed as a percentage of fluorescence decrease over a 5‐min time course. The inhibition of this efflux by the test compounds was determined using the following equation: ([efflux in the absence] ‐ [efflux in the presence of test [compound])/[efflux in the absence of test compound] × 100, which yielded the percent efflux inhibition observed.
^a Experiments were performed in triplicate with two technical replicates per biological replicate. Efflux activity of SA-1199B was expressed as percent fluorescence decrease over a 5 min time course. Inhibition of this efflux by test compounds was determined using the equation [efflux in the absence] − [efflux in the presence of test [compound]/[efflux in the absence of test compound] × 100, giving the percent efflux inhibition observed.

[6] = system: Staphylococcus aureus SA-1199B; format: cell-based
Source text: For purposes of comparison, compound 1 was included as a reference.

[7] = system: S. aureus SA-K1902 (norA-); experiment: Checkerboard assay EPI/CPX against SA-K1902; format: cell-based, Staphylococcus aureus
Experimental: (§3) Checkerboard assays were carried out using SA‐K1902 and SA‐K2378 strains according to standard procedures.

[8] = system: S. aureus SA-K2378 (norA ++); experiment: Checkerboard assay EPI/CPX against SA-K2378; format: cell-based, Staphylococcus aureus
Experimental: as §2, §3

[9] = MTT cytotoxicity assay on A549; format: cell-based; settings: human, A549 cells, read-out: Cytotoxicity (% cell viability)
Experimental: (§4) The MTT assay was performed on two human ATCC cell lines, that is, […] (CCL‐185) and MCF7 (HTB‐22), to test the potential cytotoxic effect of the compounds, after 72 h exposure, as previously described. Each compound was tested at concentrations ranging from 12.5 to 100 μg/mL. Untreated cells were considered as controls. The percentage of viable cells was calculated as follows: % Cell viability = 100 × treated well absorbance/untreated control well absorbance. All assays were performed once in technical quadruplicate.

[10] = MTT cytotoxicity assay on MCF7; format: cell-based; settings: human, MCF7 cells, read-out: Cytotoxicity (% cell viability)
Experimental: as §4

[11] = system: S. aureus SA-1199 (wild type); experiment: MIC determination against wild-type SA-1199; format: cell-based; settings: Staphylococcus aureus, compound alone
Source text: (§5) This finding aligns with their mechanism of action, which involves the inhibition of NorA, which is only basally expressed in the wild‐type SA‐1199 strain.

[12] = system: S. aureus SA-1199 (wild type); experiment: Synergistic assay with CPX against wild-type SA-1199; format: cell-based, Staphylococcus aureus; settings: EPI at 3.13 µg/mL with CPX
Source text: as §5

T1 sequence (P0A0J7 whole entry): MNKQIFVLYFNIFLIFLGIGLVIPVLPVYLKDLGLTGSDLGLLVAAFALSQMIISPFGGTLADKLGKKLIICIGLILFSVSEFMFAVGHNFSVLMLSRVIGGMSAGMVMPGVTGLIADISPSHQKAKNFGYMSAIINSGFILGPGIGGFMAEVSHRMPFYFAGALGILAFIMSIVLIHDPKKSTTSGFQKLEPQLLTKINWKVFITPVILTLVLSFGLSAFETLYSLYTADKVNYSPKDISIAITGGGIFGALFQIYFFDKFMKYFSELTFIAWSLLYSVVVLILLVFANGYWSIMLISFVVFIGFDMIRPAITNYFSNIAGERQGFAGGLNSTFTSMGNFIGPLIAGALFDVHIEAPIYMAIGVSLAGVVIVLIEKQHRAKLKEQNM

| SMILES | MIC [1] [µg/mL] | inhibition at 10 µM [5] [%] | inhibition at 50 µM [5] [%] | N° fold CPX MIC reduction ([6]; EPI at 3.12 µg/mL) [fold] | N° fold CPX MIC reduction ([6]; EPI at 12.5 µg/mL) [fold] | MIC [2] [µg/mL] | CPX MIC ([7]; EPI at 0.8 µg/mL) [µg/mL] | N° CPX MIC reduction ([7]; EPI at 0.8 µg/mL) | CPX MIC ([7]; EPI at 1.6 µg/mL) [µg/mL] | N° CPX MIC reduction ([7]; EPI at 1.6 µg/mL) | CPX MIC ([7]; EPI at 3.13 µg/mL) [µg/mL] | N° CPX MIC reduction ([7]; EPI at 3.13 µg/mL) | MIC [3] [µg/mL] | CPX MIC ([8]; EPI at 0.8 µg/mL) [µg/mL] | N° CPX MIC reduction ([8]; EPI at 0.8 µg/mL) | CPX MIC ([8]; EPI at 1.6 µg/mL) [µg/mL] | N° CPX MIC reduction ([8]; EPI at 1.6 µg/mL) | CPX MIC ([8]; EPI at 3.13 µg/mL) [µg/mL] | N° CPX MIC reduction ([8]; EPI at 3.13 µg/mL) | also measured |
| --- | --- | --- | --- | --- | --- | --- | --- | --- | --- | --- | --- | --- | --- | --- | --- | --- | --- | --- | --- | --- |
| O=C(O)c1cn(C2CC2)c2cc(N3CCNCC3)c(F)cc2c1=O [CPX, ciprofloxacin, reference compound] | 10 (≈ 30.2 µM) | – | – | – | – | – | – | – | – | – | – | – | – | – | – | – | – | – | – | CPX MIC ([2]; CPX alone, SA-K1902 (norA-)): 0.15 µg/mL; CPX MIC ([3]; CPX alone, SA-K2378 (norA ++)): 1.25 µg/mL; increase in biofilm formation ([4]; CPX alone at ½ MIC, vs untreated control): 42% |
| O=[N+]([O-])c1ccc(-n2nc(-c3ccc(Cl)cc3)c3c2-c2ccccc2S(=O)(=O)N3)cc1 [Compound 1, reference compound] | 50 (≈ 110 µM) | 0 | 77 | 2 | 16 | 12.5 (≈ 27.6 µM) | 0.15 | 0 | 0.15 | 0 | 0.15 | 0 | 12.5 (≈ 27.6 µM) | 0.6 | 2 | 0.3 | 4 | 0.3 | 4 | N° fold CPX MIC reduction ([6]; EPI at 6.25 µg/mL): 8 fold; viability at 72 h, 12.5 µg/mL ([9]; A549, 12.5 μg/mL): 90 ± 16%; viability at 72 h, 25 µg/mL ([9]; A549, 25 μg/mL): 76 ± 1%; viability at 72 h, 50 µg/mL ([9]; A549, 50 μg/mL): 32 ± 5%; viability at 72 h, 100 µg/mL ([9]; A549, 100 μg/mL): 8 ± 1%; viability at 72 h, 12.5 µg/mL ([10]; MCF7, 12.5 μg/mL): 81 ± 6%; viability at 72 h, 25 µg/mL ([10]; MCF7, 25 μg/mL): 71 ± 3%; viability at 72 h, 50 µg/mL ([10]; MCF7, 50 μg/mL): 50 ± 3%; viability at 72 h, 100 µg/mL ([10]; MCF7, 100 μg/mL): 43 ± 3% |
| CN1c2c(-c3ccc(F)cc3)nn(C)c2-c2ccc(OCCN3CCOCC3)cc2S1(=O)=O [Compound 19, 3‐(4‐Fluorophenyl)‐1,4‐dimethyl‐7‐(2‐morpholin‐4‐ylethoxy)‐1,4‐dihydropyrazolo[4,3‐c][1,2]benzothiazine 5,5‐dioxide] | > 50 | 34 | > 70 | 2 | 4 | > 50 | 0.08 | 2 | 0.08 | 2 | 0.08 | 2 | 25 (≈ 52.9 µM) | 0.3 | 4 | 0.3 | 4 | 0.3 | 4 | MIC [11]: > 50 µg/mL; synergistic effect with CPX [12]: did not show any synergistic effect; CPX MIC ([7]; EPI at 0.2 µg/mL): 0.08 µg/mL; N° CPX MIC reduction ([7]; EPI at 0.2 µg/mL): 2; CPX MIC ([7]; EPI at 0.4 µg/mL): 0.08 µg/mL; N° CPX MIC reduction ([7]; EPI at 0.4 µg/mL): 2; CPX MIC ([7]; EPI at 6.25 µg/mL): 0.08 µg/mL; N° CPX MIC reduction ([7]; EPI at 6.25 µg/mL): 2; CPX MIC ([7]; EPI at 12.5 µg/mL): 0.15 µg/mL; N° CPX MIC reduction ([7]; EPI at 12.5 µg/mL): 0; CPX MIC ([8]; EPI at 0.2 µg/mL): 0.3 µg/mL; N° CPX MIC reduction ([8]; EPI at 0.2 µg/mL): 4; CPX MIC ([8]; EPI at 0.4 µg/mL): 0.3 µg/mL; N° CPX MIC reduction ([8]; EPI at 0.4 µg/mL): 4; CPX MIC ([8]; EPI at 6.25 µg/mL): 0.16 µg/mL; N° CPX MIC reduction ([8]; EPI at 6.25 µg/mL): 8; effect on biofilm formation in combination with CPX ([4]; EPI at 0.2 µg/mL combined with CPX, SA-K2378): no positive effects |
